Reference: patent US9834518B2, “Compounds for inhibiting cell proliferation in EGFR-driven cancers” (ARIAD Pharmaceuticals, Inc., priority 2011, dated 2017)

Assays:
[1] = target: EGFR bearing the L858R mution (Homo sapiens, UniProt P00533, L858R); assay: Kinase inhibition, EGFR L858R; type: biochemical; details: 10 μM ATP; 10 pt curves, 3 μM top concentration (singlicates)
Outline: (§1)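 ATP was held at 10 μM while inhibition was measured across a 10-point series capped at 3 μM, single replicates.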

BAF3 PARENTAL = assay: Cell proliferation (MTT), BAF3 parental; type: cell-based; details: Mus musculus
Description: We also assessed the antiproliferative activity of compounds of Formula (I) against BaF3 cells expressing the target EGFR mutations or control (i.e., cell lines expressing wildtype EGFR). Assays were conducted using MTT.

[2] = target: BAF3 EGFR DEL T790M PURO POOL (Homo sapiens, UniProt P00533, DEL746-750/T790M, cells depend on it); assay: Cell proliferation (MTT), BAF3 EGFR DEL T790M; type: cell-based
Outline: (§2)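 MTT read-out; BaF3 lines carrying EGFR mutations vs wildtype-EGFR BaF3 control.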

[3] = target: EGFR bearing the L858R/T790M double mutation (Homo sapiens, UniProt P00533, L858R/T790M); assay: Kinase inhibition, EGFR L858R/T790M; type: biochemical; details: 10 μM ATP; 10 pt curves, 3 μM top concentration (singlicates)
Outline: as §1

[4] = target: human EGFR (native sequence) (Homo sapiens, UniProt P00533); assay: Kinase inhibition, human EGFR (native sequence); type: biochemical; details: 10 μM ATP; 10 pt curves, 3 μM top concentration (singlicates)
Outline: as §1

[5] = tested on: BAF3 EGFR L858R-T790M PURO POOL; assay: Cell proliferation (MTT), BAF3 EGFR L858R-T790M; type: cell-based; details: Ba/F3 EGFR
Outline: as §2

Chain of EGFR bearing the L858R/T790M double mutation (P00533 25-1210 T790M/L858R): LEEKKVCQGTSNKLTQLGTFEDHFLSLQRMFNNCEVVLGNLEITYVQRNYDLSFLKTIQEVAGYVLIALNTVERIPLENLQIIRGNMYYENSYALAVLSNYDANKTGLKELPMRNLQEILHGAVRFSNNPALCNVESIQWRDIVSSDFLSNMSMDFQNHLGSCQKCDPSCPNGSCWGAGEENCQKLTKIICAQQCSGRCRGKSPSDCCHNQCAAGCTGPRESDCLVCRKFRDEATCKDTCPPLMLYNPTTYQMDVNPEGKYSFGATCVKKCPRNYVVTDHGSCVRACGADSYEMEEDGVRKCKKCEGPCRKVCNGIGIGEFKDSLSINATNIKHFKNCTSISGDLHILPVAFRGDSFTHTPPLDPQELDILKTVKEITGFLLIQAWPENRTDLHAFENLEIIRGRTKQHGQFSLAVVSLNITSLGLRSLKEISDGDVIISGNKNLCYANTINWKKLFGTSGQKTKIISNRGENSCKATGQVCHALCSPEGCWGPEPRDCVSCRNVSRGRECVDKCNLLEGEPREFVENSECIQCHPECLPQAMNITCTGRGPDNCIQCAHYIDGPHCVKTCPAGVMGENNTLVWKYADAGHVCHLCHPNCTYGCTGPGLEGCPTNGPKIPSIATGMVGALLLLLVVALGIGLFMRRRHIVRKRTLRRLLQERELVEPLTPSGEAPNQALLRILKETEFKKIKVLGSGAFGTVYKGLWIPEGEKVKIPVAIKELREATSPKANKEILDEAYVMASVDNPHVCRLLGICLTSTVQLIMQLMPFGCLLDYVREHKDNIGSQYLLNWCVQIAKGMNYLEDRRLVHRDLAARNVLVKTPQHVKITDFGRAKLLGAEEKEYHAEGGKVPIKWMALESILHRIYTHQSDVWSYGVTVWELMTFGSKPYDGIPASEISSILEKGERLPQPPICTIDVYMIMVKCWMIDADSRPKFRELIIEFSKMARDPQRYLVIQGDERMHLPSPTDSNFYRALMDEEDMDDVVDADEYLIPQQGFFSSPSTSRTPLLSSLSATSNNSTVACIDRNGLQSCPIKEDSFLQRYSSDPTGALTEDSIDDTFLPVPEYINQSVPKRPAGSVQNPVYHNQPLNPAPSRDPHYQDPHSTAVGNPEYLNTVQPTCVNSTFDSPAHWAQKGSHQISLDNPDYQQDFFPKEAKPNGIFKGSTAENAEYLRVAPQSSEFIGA
Chain of human EGFR (native sequence) (P00533 25-1210): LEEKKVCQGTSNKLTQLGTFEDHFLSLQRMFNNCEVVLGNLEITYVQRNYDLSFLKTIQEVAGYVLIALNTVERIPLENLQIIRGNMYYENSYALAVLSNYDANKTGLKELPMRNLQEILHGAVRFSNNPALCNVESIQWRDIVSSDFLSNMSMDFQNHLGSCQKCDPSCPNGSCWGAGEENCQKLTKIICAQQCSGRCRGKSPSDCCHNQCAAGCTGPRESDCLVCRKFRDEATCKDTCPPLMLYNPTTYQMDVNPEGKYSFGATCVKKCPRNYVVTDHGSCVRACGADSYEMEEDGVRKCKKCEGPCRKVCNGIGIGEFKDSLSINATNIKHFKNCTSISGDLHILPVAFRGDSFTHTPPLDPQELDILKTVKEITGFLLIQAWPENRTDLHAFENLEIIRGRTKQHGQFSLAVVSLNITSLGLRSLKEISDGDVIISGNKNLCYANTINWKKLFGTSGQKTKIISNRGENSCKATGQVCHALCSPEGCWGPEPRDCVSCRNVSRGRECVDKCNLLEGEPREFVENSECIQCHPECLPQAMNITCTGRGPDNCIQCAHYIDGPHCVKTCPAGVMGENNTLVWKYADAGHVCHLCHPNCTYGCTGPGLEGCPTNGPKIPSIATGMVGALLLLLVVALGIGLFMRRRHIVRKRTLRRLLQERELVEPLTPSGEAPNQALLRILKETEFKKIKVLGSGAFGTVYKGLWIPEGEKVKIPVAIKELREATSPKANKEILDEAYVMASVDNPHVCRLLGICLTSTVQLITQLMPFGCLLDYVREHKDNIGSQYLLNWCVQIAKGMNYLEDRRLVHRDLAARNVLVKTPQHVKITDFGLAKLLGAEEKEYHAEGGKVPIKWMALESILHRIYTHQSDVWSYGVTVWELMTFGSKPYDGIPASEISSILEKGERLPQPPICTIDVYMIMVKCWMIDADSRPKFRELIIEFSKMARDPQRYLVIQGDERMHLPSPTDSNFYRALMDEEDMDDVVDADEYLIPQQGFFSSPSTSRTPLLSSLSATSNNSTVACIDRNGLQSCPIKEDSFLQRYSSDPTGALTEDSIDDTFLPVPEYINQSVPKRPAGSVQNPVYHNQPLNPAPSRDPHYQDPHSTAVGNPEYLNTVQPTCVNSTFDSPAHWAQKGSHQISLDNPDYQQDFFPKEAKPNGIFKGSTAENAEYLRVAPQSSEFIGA
Chain of EGFR bearing the L858R mution (P00533 25-1210 L858R): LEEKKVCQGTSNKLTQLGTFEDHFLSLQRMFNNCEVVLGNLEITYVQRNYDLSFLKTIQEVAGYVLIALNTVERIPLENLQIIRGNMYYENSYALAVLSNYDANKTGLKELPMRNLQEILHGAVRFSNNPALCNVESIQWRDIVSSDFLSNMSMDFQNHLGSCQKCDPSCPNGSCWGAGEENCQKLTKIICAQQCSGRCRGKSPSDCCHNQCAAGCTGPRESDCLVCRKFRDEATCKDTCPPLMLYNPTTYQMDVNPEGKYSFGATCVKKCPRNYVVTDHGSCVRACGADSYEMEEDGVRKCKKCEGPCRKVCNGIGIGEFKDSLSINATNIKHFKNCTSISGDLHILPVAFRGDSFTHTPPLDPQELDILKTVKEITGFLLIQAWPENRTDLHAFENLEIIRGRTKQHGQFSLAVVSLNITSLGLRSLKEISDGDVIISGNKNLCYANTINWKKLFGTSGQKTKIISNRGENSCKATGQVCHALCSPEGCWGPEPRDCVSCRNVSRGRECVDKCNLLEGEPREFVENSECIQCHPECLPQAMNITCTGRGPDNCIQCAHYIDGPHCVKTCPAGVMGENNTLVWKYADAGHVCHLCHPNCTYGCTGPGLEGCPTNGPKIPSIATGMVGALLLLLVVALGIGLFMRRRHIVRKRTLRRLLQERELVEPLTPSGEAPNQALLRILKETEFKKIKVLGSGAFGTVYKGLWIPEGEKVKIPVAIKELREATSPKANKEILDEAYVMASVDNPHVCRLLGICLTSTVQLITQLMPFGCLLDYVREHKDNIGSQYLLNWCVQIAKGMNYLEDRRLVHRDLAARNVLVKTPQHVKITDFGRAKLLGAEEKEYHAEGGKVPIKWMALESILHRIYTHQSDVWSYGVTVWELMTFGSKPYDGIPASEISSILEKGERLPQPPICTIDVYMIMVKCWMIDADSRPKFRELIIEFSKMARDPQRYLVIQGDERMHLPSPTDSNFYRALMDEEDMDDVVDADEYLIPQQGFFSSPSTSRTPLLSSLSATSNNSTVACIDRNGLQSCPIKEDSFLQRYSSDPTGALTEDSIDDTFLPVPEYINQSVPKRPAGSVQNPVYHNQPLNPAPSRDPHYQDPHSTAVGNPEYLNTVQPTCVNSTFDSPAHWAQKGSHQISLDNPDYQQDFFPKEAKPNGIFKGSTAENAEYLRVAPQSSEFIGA
Chain of BAF3 EGFR DEL T790M PURO POOL (P00533 with tags, fused parts or gaps DEL746-750/T790M): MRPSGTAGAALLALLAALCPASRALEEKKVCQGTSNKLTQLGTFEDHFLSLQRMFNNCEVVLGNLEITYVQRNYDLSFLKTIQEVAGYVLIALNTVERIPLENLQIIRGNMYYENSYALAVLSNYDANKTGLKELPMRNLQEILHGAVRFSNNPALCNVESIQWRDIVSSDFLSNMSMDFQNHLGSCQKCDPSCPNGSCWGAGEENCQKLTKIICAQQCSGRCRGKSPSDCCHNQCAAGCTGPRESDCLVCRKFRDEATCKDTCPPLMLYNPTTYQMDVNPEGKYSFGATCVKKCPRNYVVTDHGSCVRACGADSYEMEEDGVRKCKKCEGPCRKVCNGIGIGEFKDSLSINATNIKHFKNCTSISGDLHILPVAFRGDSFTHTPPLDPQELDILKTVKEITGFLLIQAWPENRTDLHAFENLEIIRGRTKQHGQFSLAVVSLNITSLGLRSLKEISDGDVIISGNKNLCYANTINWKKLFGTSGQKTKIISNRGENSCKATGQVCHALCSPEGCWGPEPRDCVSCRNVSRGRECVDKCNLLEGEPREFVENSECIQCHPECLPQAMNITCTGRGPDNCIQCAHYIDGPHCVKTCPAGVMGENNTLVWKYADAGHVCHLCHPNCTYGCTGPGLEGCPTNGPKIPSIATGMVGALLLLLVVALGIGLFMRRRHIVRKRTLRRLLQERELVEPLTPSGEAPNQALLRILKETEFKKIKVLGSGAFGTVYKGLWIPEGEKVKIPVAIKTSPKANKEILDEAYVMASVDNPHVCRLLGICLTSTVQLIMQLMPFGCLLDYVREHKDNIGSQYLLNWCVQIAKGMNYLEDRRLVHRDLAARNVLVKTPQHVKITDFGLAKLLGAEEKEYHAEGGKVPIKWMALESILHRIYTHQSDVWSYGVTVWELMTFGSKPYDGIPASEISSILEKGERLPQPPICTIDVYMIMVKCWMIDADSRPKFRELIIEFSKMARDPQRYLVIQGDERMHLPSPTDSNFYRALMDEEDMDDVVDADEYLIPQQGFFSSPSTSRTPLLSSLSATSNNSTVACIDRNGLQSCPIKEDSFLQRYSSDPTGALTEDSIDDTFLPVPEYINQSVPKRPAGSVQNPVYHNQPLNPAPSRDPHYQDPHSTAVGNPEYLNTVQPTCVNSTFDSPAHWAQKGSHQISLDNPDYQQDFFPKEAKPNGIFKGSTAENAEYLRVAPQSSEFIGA

| Structure (SMILES) | IC50 [1] | IC50 [2] | IC50 [3] | IC50 [4] | IC50 [5] | IC50 (BAF3 PARENTAL) |
| --- | --- | --- | --- | --- | --- | --- |
| COc1cc(N2CCOCC2)c(NC(=O)C2CO2)cc1Nc1ncc(Cl)c(Nc2ccccc2P(C)(C)=O)n1 (stereo not drawn) [Example 59, N-(5-((5-chloro-4-((2-(dimethylphosphoryl)phenyl)amino)pyrimidin-2-yl)amino)-4-methoxy-2-morpholinophenyl)oxirane-2-carboxamide] | < 51 nM | < 51 nM | < 51 nM | < 51 nM | 101 to 250 nM | ≥ 250 nM |
| C=CP(C)(=O)Cc1ccc(OC)c(Nc2ncc(Cl)c(Nc3ccccc3P(C)(C)=O)n2)c1 (stereo not drawn) [Example 60, (2-((5-chloro-2-((2-methoxy-5-((methyl(vinyl)phosphoryl)methyl)phenyl)amino)pyrimidin-4-yl)amino)phenyl)dimethylphosphine oxide] | ≥ 250 nM | ≥ 250 nM | ≥ 250 nM | ≥ 250 nM | ≥ 250 nM | ≥ 250 nM |
| C=CC(=O)Nc1cc(Nc2ncc(Cl)c(Nc3ccccc3P(C)(C)=O)n2)c(OC)cc1N(CC)CCN(CC)CC [Example 61, N-(5-((5-chloro-4-((2-(dimethylphosphoryl)phenyl)amino)pyrimidin-2-yl)amino)-2-((2-(diethylamino)ethyl)(ethyl)amino)-4-methoxyphenyl)acrylamide] | < 51 nM | < 51 nM | < 51 nM | < 51 nM | < 51 nM | ≥ 250 nM |
| C=CC(=O)Nc1cc(Nc2ncc(CC)c(Nc3ccccc3P(C)(C)=O)n2)c(OC)cc1N(C)CCN(CC)CC [Example 62, N-(2-((2-(diethylamino)ethyl)(methyl)amino)-5-((4-((2-(dimethylphosphoryl)phenyl)amino)-5-ethylpyrimidin-2-yl)amino)-4-methoxyphenyl)acrylamide] | < 51 nM | < 51 nM | 51 to 100 nM | 51 to 100 nM | < 51 nM | ≥ 250 nM |

Further lines, with some results ahead:

| IC50 [1] | IC50 [2] | IC50 [3] | IC50 [4] | IC50 [5] | Structure (SMILES) | IC50 (BAF3 PARENTAL) |
| --- | --- | --- | --- | --- | --- | --- |
| < 51 nM | < 51 nM | < 51 nM | < 51 nM | < 51 nM | COc1ccc(NC(=O)C2CO2)cc1Nc1ncc(Cl)c(Nc2ccccc2P(C)(C)=O)n1 (stereo not drawn) [Example 58, N-(3-((5-chloro-4-((2-(dimethylphosphoryl)phenyl)amino)pyrimidin-2-yl)amino)-4-methoxyphenyl)oxirane-2-carboxamide] | ≥ 250 nM |
| < 51 nM | < 51 nM | < 51 nM | < 51 nM | < 51 nM | C=CC(=O)Nc1ccc(OC)c(Nc2ncc(CC)c(Nc3ccccc3P(C)(C)=O)n2)c1 [Example 63, N-(3-((4-((2-(dimethylphosphoryl)phenyl)amino)-5-ethylpyrimidin-2-yl)amino)-4-methoxyphenyl)acrylamide] | ≥ 250 nM |
| < 51 nM | < 51 nM | < 51 nM | < 51 nM | < 51 nM | C=CC(=O)Nc1ccc(OC)c(Nc2ncc(C)c(Nc3ccccc3P(C)(C)=O)n2)c1 [Example 64, N-(3-((4-((2-(dimethylphosphoryl)phenyl)amino)-5-methylpyrimidin-2-yl)amino)-4-methoxyphenyl)acrylamide] | ≥ 250 nM |
| < 51 nM | < 51 nM | < 51 nM | 51 to 100 nM | < 51 nM | C=CC(=O)Nc1ccc(OC)c(Nc2ncc(C3CC3)c(Nc3ccccc3P(C)(C)=O)n2)c1 [Example 65, N-(3-((5-cyclopropyl-4-((2-(dimethylphosphoryl)phenyl)amino)pyrimidin-2-yl)amino)-4-methoxyphenyl)acrylamide] | ≥ 250 nM |
